Calls of active or inactive are those of the source. No rule for the calls is given here.
System: CCRIS mutagenicity, Ames/micronucleus/aberration tests
Assay: CCRIS mutagenicity studies
[1] = Test System: AMES SALMONELLA TYPHIMURIUM, Strain/Indicator: TA98, Metabolic Activation: NONE, Method: PREINCUBATION
[2] = Test System: AMES SALMONELLA TYPHIMURIUM, Strain/Indicator: TA98, Metabolic Activation: RAT, LIVER, S-9, AROCLOR 1254, Method: STANDARD PLATE
[3] = Test System: AMES SALMONELLA TYPHIMURIUM, Strain/Indicator: TA98, Metabolic Activation: NONE, Method: STANDARD PLATE
[4] = Test System: AMES SALMONELLA TYPHIMURIUM, Strain/Indicator: TA100, Metabolic Activation: NONE, Method: STANDARD PLATE

With `O=[N+]([O-])c1cc(O)c2ccc3cccc4ccc1c2c34` the mutagenic call (Test System: AMES SALMONELLA TYPHIMURIUM, Strain/Indicator: TA98(1,8-DNP6), Metabolic Activation: NONE, Method: PREINCUBATION) was “active; positive”, the mutagenic call (Test System: AMES SALMONELLA TYPHIMURIUM, Strain/Indicator: TA98(1,8-DNP6), Metabolic Activation: NONE, Method: STANDARD PLATE) was “active; positive” and the mutagenic call (Test System: AMES SALMONELLA TYPHIMURIUM, Strain/Indicator: TA98(1,8-DNP6), Metabolic Activation: RAT, LIVER, S-9, AROCLOR 1254, Method: STANDARD PLATE) was “active; positive”. For the same compound, the mutagenic call (Test System: AMES SALMONELLA TYPHIMURIUM, Strain/Indicator: TA98(NR), Metabolic Activation: NONE, Method: PREINCUBATION) was “active; positive”, the mutagenic call (Test System: AMES SALMONELLA TYPHIMURIUM, Strain/Indicator: TA98(NR), Metabolic Activation: NONE, Method: STANDARD PLATE) was “active; positive” and the mutagenic call (Test System: AMES SALMONELLA TYPHIMURIUM, Strain/Indicator: TA98(NR), Metabolic Activation: RAT, LIVER, S-9, AROCLOR 1254, Method: STANDARD PLATE) was “active; positive”. For the same compound, the mutagenic call [1] was “active; positive”, the mutagenic call (Test System: AMES SALMONELLA TYPHIMURIUM, Strain/Indicator: TA98, Metabolic Activation: RAT, LIVER, S-9, AROCLOR 1254, Method: PREINCUBATION) was “active; positive” and the mutagenic call [2] was “active; positive”. For the same compound, the mutagenic call (Test System: AMES SALMONELLA TYPHIMURIUM, Strain/Indicator: TA100, Metabolic Activation: NONE, Method: PREINCUBATION) was “active; positive”, the mutagenic call (Test System: AMES SALMONELLA TYPHIMURIUM, Strain/Indicator: TA100, Metabolic Activation: RAT, LIVER, S-9, AROCLOR 1254, Method: PREINCUBATION) was “active; positive” and the mutagenic call (Test System: AMES SALMONELLA TYPHIMURIUM, Strain/Indicator: YG1024, Metabolic Activation: NONE, Method: STANDARD PLATE) was “active; positive”. The mutagenic call (Test System: AMES SALMONELLA TYPHIMURIUM, Strain/Indicator: YG1024, Metabolic Activation: RAT, LIVER, S-9, AROCLOR 1254, Method: STANDARD PLATE) was “active; positive”, the mutagenic call (Test System: CHINESE HAMSTER OVARY, Strain/Indicator: CHO (HGPRT)/6-THIOGUANINE, Metabolic Activation: NONE, Method: STANDARD PLATE) was “inactive; negative” and the mutagenic call (Test System: CHINESE HAMSTER OVARY, Strain/Indicator: CHO (HGPRT)/6-THIOGUANINE, Metabolic Activation: RAT, LIVER, S-9, AROCLOR 1254, Method: STANDARD PLATE) was “active; positive”. The mutagenic call (Test System: UDS RODENT HEPATOCYTES, Strain/Indicator: THY INCORP, Metabolic Activation: NONE, Method: AUTORADIOGRAPHY) was “inactive; negative”.
For `COc1cccc(NC(=O)c2csc([N+](=O)[O-])c2)c1`, the mutagenic call [3] was “active; positive” and the mutagenic call [4] was “active; positive”.
`CC1=C(N=O)CNc2c1nc1c(C)cccn21` was tested, and the mutagenic call [3] was “active; positive”, the mutagenic call (Test System: AMES SALMONELLA TYPHIMURIUM, Strain/Indicator: TA98, Metabolic Activation: RAT, LIVER, CYTOSOL, AROCLOR 1254, Method: STANDARD PLATE) was “active; positive” and the mutagenic call (Test System: AMES SALMONELLA TYPHIMURIUM, Strain/Indicator: TA98, Metabolic Activation: RAT, LIVER, MICROSOMES, AROCLOR 1254, Method: STANDARD PLATE) was “active; positive”. For the same compound, the mutagenic call [2] was “active; positive”.
`NC(=O)OCc1ccccc1` was tested, and the mutagenic call (Test System: E. COLI, Strain/Indicator: WP2 UVRA, Metabolic Activation: NONE, Method: FLUCTUATION TEST) was “inactive; negative”.
With `Cc1ccc2[nH]c3c(C)cc([N+](=O)[O-])c(C)c3c2c1` the mutagenic call [3] was “active; positive”, the mutagenic call (Test System: AMES SALMONELLA TYPHIMURIUM, Strain/Indicator: TA98, Metabolic Activation: RAT LIVER S-9, AROCLOR 1254, Method: STANDARD PLATE) was “active; positive” and the mutagenic call [4] was “inactive; negative”. The mutagenic call (Test System: AMES SALMONELLA TYPHIMURIUM, Strain/Indicator: TA100, Metabolic Activation: RAT LIVER S-9, AROCLOR 1254, Method: STANDARD PLATE) was “inactive; negative”, the mutagenic call (Test System: AMES SALMONELLA TYPHIMURIUM, Strain/Indicator: TA1537, Metabolic Activation: RAT LIVER S-9, AROCLOR 1254, Method: STANDARD PLATE) was “active; positive” and the mutagenic call (Test System: AMES SALMONELLA TYPHIMURIUM, Strain/Indicator: TA1977, Metabolic Activation: NONE, Method: STANDARD PLATE) was “inactive; negative”. For the same compound, the mutagenic call (Test System: AMES SALMONELLA TYPHIMURIUM, Strain/Indicator: TA1977, Metabolic Activation: RAT LIVER S-9, AROCLOR 1254, Method: STANDARD PLATE) was “active; positive”.
`Clc1ccccc1-c1ccccc1` was tested, and the mutagenic call (End Point: In vivo mutagenicity, Test System: Liver, Species: Rat, Strain/Sex: Big Blue/Male, Route: Intraperitoneal) was “active; positive; statistically significant increase of mutant frequency of liver laci g”.
For `CCC[CH2][Sn]([Cl])([Cl])[CH2]CCC`, the mutagenic call (Test System: AMES SALMONELLA TYPHIMURIUM, Strain/Indicator: TA98, Metabolic Activation: NONE, Method: SUSPENSION/PLATE) was “inactive; negative” and the mutagenic call (Test System: AMES SALMONELLA TYPHIMURIUM, Strain/Indicator: TA100, Metabolic Activation: NONE, Method: SUSPENSION/PLATE) was “inactive; negative”.
For `ONc1cccc2ccccc12`, the mutagenic call [3] was “active; positive” and the mutagenic call [4] was “active; positive”.
`C1=Cc2cc3c4ccccc4ccc3c3cccc1c23` was tested, and the mutagenic call [3] was “inactive; negative”, the mutagenic call (Test System: AMES SALMONELLA TYPHIMURIUM, Strain/Indicator: TA98, Metabolic Activation: RAT, LIVER, S-9, AROCLOR 1254 (0.127 OR 1.27 MG S-9 PROTEIN), Method: STANDARD PLATE) was “active; positive” and the mutagenic call [2] was “active; positive”. The mutagenic call (Test System: AMES SALMONELLA TYPHIMURIUM, Strain/Indicator: TA100, Metabolic Activation: RAT, LIVER, S-9, AROCLOR 1254, Method: STANDARD PLATE) was “active; positive”, the mutagenic call (Test System: AMES SALMONELLA TYPHIMURIUM, Strain/Indicator: TA1535, Metabolic Activation: RAT, LIVER, S-9, AROCLOR 1254, Method: STANDARD PLATE) was “inactive; negative” and the mutagenic call (Test System: AMES SALMONELLA TYPHIMURIUM, Strain/Indicator: TA1537, Metabolic Activation: RAT, LIVER, S-9, AROCLOR 1254, Method: STANDARD PLATE) was “active; positive”. The mutagenic call (Test System: AMES SALMONELLA TYPHIMURIUM, Strain/Indicator: TA1538, Metabolic Activation: RAT, LIVER, S-9, AROCLOR 1254, Method: STANDARD PLATE) was “active; positive”.
`CCCSP(=O)(OCC)Oc1ccc(Br)cc1Cl` (stereo not drawn) was tested, and the mutagenic call (End Point: In vitro chromosomal aberrations, Test System: Human peripheral lymphocytes, Metabolic Activation: None) was “active; positive (structural changes)” and the mutagenic call (End Point: In vivo chromosomal aberrations, Test System: Bone marrow cells, Species: Mouse, Strain/Sex: Swiss/Male, Route: Oral) was “active; positive (structural changes and ploidy)”.
For `Cc1c2c(cc3ccccc13)-c1ccccc1C1NC21` (stereo not drawn), the mutagenic call (Test System: AMES SALMONELLA TYPHIMURIUM, Strain/Indicator: TA97, Metabolic Activation: NONE, Method: PREINCUBATION) was “active; positive”, the mutagenic call [1] was “active; positive” and the mutagenic call [3] was “active; positive”. The mutagenic call [4] was “active; positive” and the mutagenic call (Test System: AMES SALMONELLA TYPHIMURIUM, Strain/Indicator: TA104, Metabolic Activation: NONE, Method: PREINCUBATION) was “active; positive”.
`COc1cc(COC(=O)CCCCCCC(C)C)ccc1O` was tested, and the mutagenic call (End Point: In vivo micronucleus, Test System: Bone marrow polychromatic erythrocytes, Species: Mouse, Strain/Sex: BDF1/male, Route: Oral) was “inactive; negative”, the mutagenic call (Test System: Ames Salmonella typhimurium, Strain/Indicator: TA98, Metabolic Activation: None, Method: Preincubation) was “inactive; negative” and the mutagenic call (Test System: Ames Salmonella typhimurium, Strain/Indicator: TA98, Metabolic Activation: Rat, Liver, S-9, Phenobarbital and 5,6-benzoflavone, Method: Preincubation) was “inactive; negative”. For the same compound, the mutagenic call (Test System: Ames Salmonella typhimurium, Strain/Indicator: TA100, Metabolic Activation: Rat, Liver, S-9, Phenobarbital and 5,6-benzoflavone, Method: Preincubation) was “inactive; negative”, the mutagenic call (Test System: Ames Salmonella typhimurium, Strain/Indicator: TA1535, Metabolic Activation: None, Method: Preincubation) was “inactive; negative” and the mutagenic call (Test System: Ames Salmonella typhimurium, Strain/Indicator: TA1535, Metabolic Activation: Rat, Liver, S-9, Phenobarbital and 5,6-benzoflavone, Method: Preincubation) was “inactive; negative”. For the same compound, the mutagenic call (Test System: Ames Salmonella typhimurium, Strain/Indicator: TA1537, Metabolic Activation: Rat, Liver, S-9, Phenobarbital and 5,6-benzoflavone, Method: Preincubation) was “inactive; negative”, the mutagenic call (Test System: E. coli, Strain/Indicator: WP2 uvrA, Metabolic Activation: None, Method: Preincubation) was “inactive; negative” and the mutagenic call (Test System: E. coli, Strain/Indicator: WP2 uvrA, Metabolic Activation: Rat, Liver, S-9, Phenobarbital and 5,6-benzoflavone, Method: Preincubation) was “inactive; negative”.
